Measured values published in patent US8445505B2 (IRM LLC, priority 2008, dated 2013).

These compounds were tested against IGF1R Ba/F3 (Homo sapiens, UniProt P08069) (assay: Ba/F3 Cell Viability Inhibition Assay (Tel-TK transformed Ba/F3 lines)). Conditions: Tel-TK (IGF1R) transformed Ba/F3 cells, 48 hours incubation, cell viability (Britelite luminescence).
IGF1R Ba/F3, sequence (P08069 999-1274 limits assumed): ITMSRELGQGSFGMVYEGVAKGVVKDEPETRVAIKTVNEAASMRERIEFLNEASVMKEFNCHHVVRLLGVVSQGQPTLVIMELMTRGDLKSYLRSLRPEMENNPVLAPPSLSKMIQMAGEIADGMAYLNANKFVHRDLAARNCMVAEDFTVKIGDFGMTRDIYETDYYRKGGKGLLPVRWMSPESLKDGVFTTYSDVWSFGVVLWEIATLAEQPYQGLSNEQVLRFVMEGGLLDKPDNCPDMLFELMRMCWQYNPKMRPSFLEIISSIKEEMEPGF
Assay type: cell-based, murine
Design: the printed alternative
From the text: Ba/F3 is a murine IL-3-dependent pro-B lymphoma cell line. Parental Ba/F3 cells are used to generate a panel of sublines whose proliferation and survival is rendered IL-3-independent by stable transduction with individual tyrosine kinases activated by fusion with the amino-terminal portion of TEL (amino acid 1-375) or BCR. In order to generate Ba/F3 cell lines transformed by Tel-Tyrosine Kinase (TK) fusions, parental Ba/F3 cells are infected with a retrovirus harboring each TEL-fusion kinase and subjected to puromycin selection and IL-3 withdrawal to obtain IL-3-independent, transformed Ba/F3 cells.
Each transformed Ba/F3 cells are cultured in RPMI-1640 media (Gibco Cat #11875093, Carlsbad, Calif.) supplemented with 10% FBS (Hyclone Cat #SV30014.03, Logan, Utah), 4.5 g/L glucose (Sigma #G5400, St.Louis, Mo.), 1.5 g/L sodium bicarbonate (Biowhittaker #17-613E, Walkersville, Md.) and Pen/Strep (Gibco #10378-016, Carlsbad, Calif.). Cells are splitted twice weekly.
The potency of test compounds against various Tel-TK transformed Ba/F3 lines is determined as follows. Exponentially growing BaF3 Tel-TK cells are diluted in fresh medium to 75,000 cells/mL and seeded into 384-well plates (3750 cells/well) at 50 μL/well using a gill liquid dispenser (BioTek, Winooski, Vt., USA). Duplicate plates are run for each cell line. Test and control compounds are serially diluted with DMSO and arrayed in a polypropylene 384-well plate. 50 nL of compound is transferred into the assay plates using a pin-transfer device, and the plates are incubated at 37° C. (5% CO2) for 48 hours. 25 μL Britelite (Perkin Elmer) is added and luminescence is quantified using Analyst GT (Molecular Devices). Custom curve-fitting software is used to produce a logistic fit of percent cell viability as a function of the logarithm of inhibitor concentration. The IC50 is interpolated as the concentration of compound needed to reduce cell viability to 50% of a DMSO control. Parental Ba/F3 cells that are maintained and cultured in presence of IL-3 (1 ng/ml in final) are diluted in fresh medium containing IL-3 (1 ng/ml in final) to 75,000 cells/mL following the same procedure as described above.
`Cc1cc(Nc2nc(Nc3cc(C)c(-c4cnn(C)c4)cc3F)ncc2Cl)n[nH]1` [Compound 1, 5-chloro-N2-(2-fluoro-5-methyl-4-(1-methyl-1H-pyrazol-4-yl)phenyl)-N4-(5-methyl-1H-pyrazol-3-yl)pyrimidine-2,4-diamine] was tested, and the IC50 was 67 nM.
`Cc1cc(Nc2nc(Nc3cc(C)c(-c4ccncc4)cc3F)ncc2Cl)n[nH]1` [Compound 2, 5-chloro-N2-(2-fluoro-5-methyl-4-(pyridin-4-yl)phenyl)-N4-(5-methyl-1H-pyrazol-3-yl)pyrimidine-2,4-diamine] gave an IC50 of 103 nM.
In the case of `Cc1cc(Nc2nc(Nc3cc(C)c(-c4cccnc4)cc3F)ncc2Cl)n[nH]1` [Compound 3, 5-chloro-N2-(2-fluoro-5-methyl-4-(pyridin-3-yl)phenyl)-N4-(5-methyl-1H-pyrazol-3-yl)pyrimidine-2,4-diamine], the IC50 is reported as 67 nM.
With `CNC(=O)c1ccc(-c2cc(F)c(Nc3ncc(Cl)c(Nc4cc(C)[nH]n4)n3)cc2C)cn1` [Compound 4, 5-(4-(5-chloro-4-(5-methyl-1H-pyrazol-3-ylamino)pyrimidin-2-ylamino)-5-fluoro-2-methylphenyl)-N-methylpicolinamide] the IC50 was 89 nM.
Compound `Cc1ccc(-c2cc(F)c(Nc3ncc(Cl)c(Nc4cc(C)[nH]n4)n3)cc2C)cn1` [Compound 5, 5-chloro-N2-(2-fluoro-5-methyl-4-(6-methylpyridin-3-yl)phenyl)-N4-(5-methyl-1H-pyrazol-3-yl)pyrimidine-2,4-diamine] has an IC50 of 137 nM.
`Cc1cc(Nc2nc(Nc3cc(C)c(-c4ccccn4)cc3F)ncc2Cl)n[nH]1` [Compound 6, 5-chloro-N2-(2-fluoro-5-methyl-4-(pyridin-2-yl)phenyl)-N4-(5-methyl-1H-pyrazol-3-yl)pyrimidine-2,4-diamine] gave an IC50 of 294 nM.
Compound `Cc1cc(Nc2nc(Nc3cc(C)c(-c4cnc5ccccc5c4)cc3F)ncc2Cl)n[nH]1` [Compound 7, 5-chloro-N2-(2-fluoro-5-methyl-4-(quinolin-3-yl)phenyl)-N4-(5-methyl-1H-pyrazol-3-yl)pyrimidine-2,4-diamine] has an IC50 of 579 nM.
In the case of `Cc1cc(Nc2nc(Nc3cc(C)c(-c4ccc(O)nc4)cc3F)ncc2Cl)n[nH]1` [Compound 8, 5-(4-(5-chloro-4-(5-methyl-1H-pyrazol-3-ylamino)pyrimidin-2-ylamino)-5-fluoro-2-methylphenyl)pyridin-2-ol], the IC50 is reported as 55 nM.
Compound `Cc1cc(-c2cc(F)c(Nc3ncc(Cl)c(Nc4cc(C)[nH]n4)n3)cc2C)ccn1` [Compound 9, 5-chloro-N2-(2-fluoro-5-methyl-4-(2-methylpyridin-4-yl)phenyl)-N4-(5-methyl-1H-pyrazol-3-yl)pyrimidine-2,4-diamine] has an IC50 of 94 nM.
`Cc1cc(Nc2nc(Nc3cc(C)c(-c4ccsc4)cc3F)ncc2Cl)n[nH]1` [Compound 10, 5-chloro-N2-(2-fluoro-5-methyl-4-(thiophen-3-yl)phenyl)-N4-(5-methyl-1H-pyrazol-3-yl)pyrimidine-2,4-diamine] showed an IC50 of 833 nM.
Compound `Cc1cc(Nc2nc(Nc3cc(C)c(-c4ccoc4)cc3F)ncc2Cl)n[nH]1` [Compound 11, 5-chloro-N2-(2-fluoro-4-(furan-3-yl)-5-methylphenyl)-N4-(5-methyl-1H-pyrazol-3-yl)pyrimidine-2,4-diamine] has an IC50 of 683 nM.
Work on `Cc1cc(Nc2nc(Nc3cc(C)c(-c4cnn(C)c4)cc3C)ncc2Cl)n[nH]1` [Compound 12, 5-chloro-N2-(2,5-dimethyl-4-(1-methyl-1H-pyrazol-4-yl)phenyl)-N4-(5-methyl-1H-pyrazol-3-yl)pyrimidine-2,4-diamine] yielded an IC50 of 25 nM.
In the case of `CNC(=O)c1ccc(-c2cc(C)c(Nc3ncc(Cl)c(Nc4cc(C)[nH]n4)n3)cc2C)cn1` [Compound 14, 5-(4-(5-chloro-4-(5-methyl-1H-pyrazol-3-ylamino)pyrimidin-2-ylamino)-2,5-dimethylphenyl)-N-methylpicolinamide], the IC50 is reported as 15 nM.
In the case of `Cc1cc(-c2cc(C)c(Nc3ncc(Cl)c(Nc4cc(C)[nH]n4)n3)cc2C)ccn1` [Compound 15, 5-chloro-N2-(2,5-dimethyl-4-(2-methylpyridin-4-yl)phenyl)-N4-(5-methyl-1H-pyrazol-3-yl)pyrimidine-2,4-diamine], the IC50 is reported as 39 nM.
Work on `Cc1ccc(-c2cc(C)c(Nc3ncc(Cl)c(Nc4cc(C)[nH]n4)n3)cc2C)cn1` [Compound 16, 5-chloro-N2-(2,5-dimethyl-4-(6-methylpyridin-3-yl)phenyl)-N4-(5-methyl-1H-pyrazol-3-yl)pyrimidine-2,4-diamine] yielded an IC50 of 30 nM.
With `Cc1cc(Nc2nc(Nc3cc(C)c(-c4ncc[nH]4)cc3C)ncc2Cl)n[nH]1` [Compound 17, N2-(4-(1H-imidazol-2-yl)-2,5-dimethylphenyl)-5-chloro-N4-(5-methyl-1H-pyrazol-3-yl)pyrimidine-2,4-diamine] the IC50 was 68 nM.
`Cc1cc(-c2cc(C)c(Nc3ncc(Cl)c(Nc4cc(C)[nH]n4)n3)cc2C)on1` [Compound 18, 5-chloro-N2-(2,5-dimethyl-4-(3-methylisoxazol-5-yl)phenyl)-N4-(5-methyl-1H-pyrazol-3-yl)pyrimidine-2,4-diamine] was tested, and the IC50 was 276 nM.
`Cc1cc(Nc2nc(Nc3cc(C)c(-c4ncc[nH]4)cc3F)ncc2Cl)n[nH]1` [Compound 19, 5-chloro-N2-(2-fluoro-4-(1H-imidazol-2-yl)-5-methylphenyl)-N4-(5-methyl-1H-pyrazol-3-yl)pyrimidine-2,4-diamine] showed an IC50 of 288 nM.
Work on `Cc1cc(Nc2nc(Nc3cc(C)c(-c4cnco4)cc3C)ncc2Cl)n[nH]1` [Compound 20, 5-chloro-N2-(2,5-dimethyl-4-(oxazol-5-yl)phenyl)-N4-(5-methyl-1H-pyrazol-3-yl)pyrimidine-2,4-diamine] yielded an IC50 of 109 nM.
For `COc1cc(-c2cnco2)c(C)cc1Nc1ncc(Cl)c(Nc2cc(C)[nH]n2)n1` [Compound 21, 5-chloro-N2-(2-methoxy-5-methyl-4-(oxazol-5-yl)phenyl)-N4-(5-methyl-1H-pyrazol-3-yl)pyrimidine-2,4-diamine], the IC50 was 169 nM.
For `Cc1cc(-c2cc(C)c(Nc3ncc(Cl)c(Nc4cc(C)[nH]n4)n3)cc2C)[nH]n1` [Compound 22, 5-chloro-N2-(2,5-dimethyl-4-(3-methyl-1H-pyrazol-5-yl)phenyl)-N4-(5-methyl-1H-pyrazol-3-yl)pyrimidine-2,4-diamine], the IC50 was 166 nM.
In the case of `Cc1cc(Nc2nc(Nc3cc(C)c(-c4csc(C)n4)cc3C)ncc2Cl)n[nH]1` [Compound 24, 5-chloro-N2-(2,5-dimethyl-4-(2-methylthiazol-4-yl)phenyl)-N4-(5-methyl-1H-pyrazol-3-yl)pyrimidine-2,4-diamine], the IC50 is reported as 106 nM.
With `Cc1cc(Nc2nc(Nc3cc(C)c(-c4nccn4C)cc3C)ncc2Cl)n[nH]1` [Compound 25, 5-chloro-N2-(2,5-dimethyl-4-(1-methyl-1H-imidazol-2-yl)phenyl)-N4-(5-methyl-1H-pyrazol-3-yl)pyrimidine-2,4-diamine] the IC50 was 71 nM.
`Cc1cc(Nc2nc(Nc3cc(F)c(-c4cnn(C)c4)cc3C)ncc2Cl)n[nH]1` [Compound 27, 5-chloro-N2-(5-fluoro-2-methyl-4-(1-methyl-1H-pyrazol-4-yl)phenyl)-N4-(5-methyl-1H-pyrazol-3-yl)pyrimidine-2,4-diamine] showed an IC50 of 549 nM.
In the case of `C/C(=N\OCCO)c1cc(C)c(Nc2ncc(Cl)c(Nc3cc(C)[nH]n3)n2)cc1C` [Compound 28, 1-(4-(5-chloro-4-(5-methyl-1H-pyrazol-3-ylamino)pyrimidin-2-ylamino)-2,5-dimethylphenyl)ethanone O-2-hydroxyethyloxime], the IC50 is reported as 141 nM.
With `C/C(=N\O)c1cc(C)c(Nc2ncc(Cl)c(Nc3cc(C)[nH]n3)n2)cc1C` [Compound 29, 1-(4-(5-chloro-4-(5-methyl-1H-pyrazol-3-ylamino)pyrimidin-2-ylamino)-2,5-dimethylphenyl)ethanone oxime] the IC50 was 51 nM.
`Cc1cc(Nc2nc(Nc3cc(C)c(C(=O)N(C)C)cc3C)ncc2Cl)n[nH]1` [Compound 30, 4-(5-chloro-4-(5-methyl-1H-pyrazol-3-ylamino)pyrimidin-2-ylamino)-N,N,2,5-tetramethylbenzamide] showed an IC50 of 539 nM.
Work on `Cc1cc(Nc2nc(Nc3cc(C)c(C(=O)NCCN(C)C)cc3C)ncc2Cl)n[nH]1` [Compound 31, 4-(5-chloro-4-(5-methyl-1H-pyrazol-3-ylamino)pyrimidin-2-ylamino)-N-(2-(dimethylamino)ethyl)-2,5-dimethylbenzamide] yielded an IC50 of 659 nM.
In the case of `Cc1cc(Nc2nc(Nc3cc(C)c(C(=O)N4CCOCC4)cc3C)ncc2Cl)n[nH]1` [Compound 32, (4-(5-chloro-4-(5-methyl-1H-pyrazol-3-ylamino)pyrimidin-2-ylamino)-2,5-dimethylphenyl)(morpholino)methanone], the IC50 is reported as 451 nM.
